We go through seven compounds from patent US10765687B2, “Methods and compounds to inhibit enveloped virus release” (Northwestern University, priority 2012, dated 2020).

Entries after “also recorded” stand apart in the source; their conditions may differ. No end group written: not given here.

The target of series [1] is T1, WWP2 (SEQ ID NO:24) (Homo sapiens, UniProt O00308).
T1 construct: poly-His (pET28b leader with thrombin site) (N, cleaved yes); made in house; host or cells: E. coli BL21 DE3
T1 sequence (O00308 with tags, fused parts or gaps): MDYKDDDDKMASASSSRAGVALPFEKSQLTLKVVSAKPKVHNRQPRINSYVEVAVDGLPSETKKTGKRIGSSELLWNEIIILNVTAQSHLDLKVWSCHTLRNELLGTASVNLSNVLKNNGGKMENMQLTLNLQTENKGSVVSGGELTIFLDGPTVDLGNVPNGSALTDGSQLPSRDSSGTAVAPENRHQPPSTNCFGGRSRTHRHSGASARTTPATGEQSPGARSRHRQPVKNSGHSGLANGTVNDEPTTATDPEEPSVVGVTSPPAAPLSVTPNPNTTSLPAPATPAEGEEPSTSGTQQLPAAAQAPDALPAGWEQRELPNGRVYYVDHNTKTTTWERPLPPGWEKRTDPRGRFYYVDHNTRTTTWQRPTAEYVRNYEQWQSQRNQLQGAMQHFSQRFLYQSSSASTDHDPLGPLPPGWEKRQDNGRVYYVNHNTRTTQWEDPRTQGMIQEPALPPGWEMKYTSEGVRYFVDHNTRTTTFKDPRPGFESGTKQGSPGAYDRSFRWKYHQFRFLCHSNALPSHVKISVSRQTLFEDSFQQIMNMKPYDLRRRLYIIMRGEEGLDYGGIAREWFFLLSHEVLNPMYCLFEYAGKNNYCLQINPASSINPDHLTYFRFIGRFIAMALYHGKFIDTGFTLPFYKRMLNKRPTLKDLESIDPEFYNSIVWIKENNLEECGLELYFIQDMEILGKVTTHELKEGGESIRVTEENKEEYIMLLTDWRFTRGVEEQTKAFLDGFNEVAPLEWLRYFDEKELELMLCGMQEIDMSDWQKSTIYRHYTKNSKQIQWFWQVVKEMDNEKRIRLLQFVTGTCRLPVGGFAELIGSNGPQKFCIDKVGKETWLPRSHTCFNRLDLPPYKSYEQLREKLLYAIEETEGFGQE
The series is described as follows: Fluorescence polarization assay (FITC/TAMRA) for disruption of WWP2 binding to PY-motif peptide probe. The note with it: SEQ ID NO: 17 probe with FITC or TAMRA label; read-out: [compound] to achieve 50% change in fluorescence polarization in FP Assay. As to the method:
Screens for compounds that disrupt the binding of the FTIC-peptide and WWP2 (SEQ ID NO:24) were carried out in 384-well plate format with […] assay volume at ˜[…] WWP2. Non-binding solid black plates (Corning Costar 3575) were used. The assay buffer contained 20 mM Tris and 150 mM NaCl at pH 7.9. FP was measured on either a Biotek Synergy4 or an Analyst GT plate reader. Data analysis was performed using the in-house software excelHTS. […] Each assay plate included 16 negative control wells containing protein-probe mix but no compounds and 16 wells containing only probe.
For orientation: In fluorescence polarisation assays a small probe gives low polarisation when free and higher when bound to something large.

The next series relates to HSV-1 (strain F). The series is described as follows: HSV-1 virus production and release from infected Vero cells, plaque assay. The format is cell-based. The note with it: FIG. 8A. As to the method:
Vero cells were inoculated with HSV-1 (strain F) at a multiplicity of infection (MOI) of 0.01 for 2 hr. The cells were washed and treated with 0.10 M sodium citrate buffer to inactivate viruses on the outside of the cells (for example, in the culture medium). The culture medium was replaced with fresh culture medium containing no inhibitor compound or different concentrations (40 μM or 80 μM) of inhibitor compounds F15 or N16 (candidate PTAP motif inhibitors against the TSG101 peptide [SEQ ID NO:33]) for 48 hr. The supernatants (culture medium) and total cells (culture medium and cells) were collected for determining infectious virus titer. The virus titers were determined by standard plaque assay on Vero cells.
Vero cells were grown in DMEM supplemented with 10% FBS. Viral infections were performed in DMEM supplemented with 1% heat-inactivated FBS. Vero cells were inoculated HSV-1 (strain F) at indicated concentrations, after 2 h, the cells were washed and treated with 0.1 M sodium citrate buffer (pH 3.0) for 1 min to inactivate unpenetrated viruses, washed again and incubated with fresh medium containing 1% heat-inactivated FBS. […] Then virus titers were determined by standard plaque assay on Vero cells.

Another series relates to Vero cells. The series is described as follows: MTS cytotoxicity assay. The note with it: 0 μM to 100 μM, uninfected cells, absorbance at 490 nm, FIG. 8B; listed as N16. The procedure: The cytotoxicity of the compounds was determined by a commercially available assay (Celltiter 96® AQueous One Solution cell proliferation assay reagent; Promega, Madison, Wis.), as described previously (Akkarawongsa et al., 2006). The CellTiter 96® AQueous One Solution Cell Proliferation Assay is a colorimetric method for determining the number of viable cells in proliferation, cytotoxicity or chemosensitivity assays. The CellTiter 96® AQueous One Solution Reagent contains a tetrazolium compound [3-(4,5-dimethylthiazol-2-yl)-5-(3-carboxymethoxyphenyl)-2-(4-sulfophenyl)-2H-tetrazolium, inner salt; MTS] and an electron coupling reagent (phenazine ethosulfate; PES). PES has enhanced chemical stability, which allows it to be combined with MTS to form a stable solution. […] Assays are performed by adding a small amount of the CellTiter 96® AQueous One Solution Reagent directly to culture wells, incubating for 1-4 hours and then recording absorbance at 490 nm with a 96-well plate reader. The quantity of formazan product as measured by the amount of 490 nm absorbance is directly proportional to the number of living cells in culture.
Briefly, Vero cells (1.5×10^4 cells/well) were seeded in a 96-well plate, and the plate was incubated for 24 h at 37° C. […] The plate was then incubated for 2 h at 37° C., and the absorbance at 490 nm was determined with a 96-well plate reader (Perkin Elmer).
(Formazan colour is commonly taken as a measure of viable cells.)

For the next series, the target named is T2, TSG101 (SEQ ID NO:33) (Homo sapiens, UniProt Q99816).
T2 construct: polyhistidine leader with thrombin cleavage site (pET28b) (N); TEV cleavage site (N); made in house
T2 sequence (Q99816 with tags, fused parts or gaps): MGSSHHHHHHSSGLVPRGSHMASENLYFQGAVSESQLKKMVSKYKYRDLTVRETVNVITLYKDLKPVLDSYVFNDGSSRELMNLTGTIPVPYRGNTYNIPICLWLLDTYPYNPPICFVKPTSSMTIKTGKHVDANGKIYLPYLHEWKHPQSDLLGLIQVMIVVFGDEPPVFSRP
The series is described as follows: Fluorescence-based thermal shift (FTS) assay. The format is binding. The settings on record: FIG. 7. As to the method:
The fluorescence-based thermal shift assay is based on the observation that a protein unfolds upon heating, exposing the hydrophobic residues within its tertiary structure. The unfolding temperature (Tm) is determined by the protein's primary sequence and solution environment. The FTS assay uses a fluorescent dye sensitive to a hydrophobic environment to probe protein stability and its modulation by small molecule ligands. The dye has a low fluorescence quantum yield when in a polar environment. […] J Biomol Screen 6: 429-440; Lo M C, Aulabaugh A, Jin G, Cowling R, Bard J, et al. (2004) Evaluation of fluorescence-based thermal shift assays for hit identification in drug discovery. […]
The NU-HTA has developed a robotic pipeline for small molecule protein ligand screening by FTS. See Luan C H, Light S H, Dunne S F, Anderson W F. Ligand screening using Fluorescence Thermal Shift Analysis (FTS). […] The pipeline uses an Echo550 acoustic transfer robot (Labcyte, CA) for compound addition and the Mosquito robot (TTP LabTechnologies, UK) for protein dispensing followed by thermal scanning coupled with fluorescence detection which is performed on a real-time PCR machine CFX384 (Bio-Rad Laboratories). […]

Series [2] deals with T3, WWP2 polypeptide (SEQ ID NO:24) (Homo sapiens, UniProt O00308).
T3 construct: poly-His (pET28b leader with thrombin site) (N, cleaved yes); made in house; host or cells: E. coli BL21 DE3
T3 sequence (O00308 with tags, fused parts or gaps): as the sequence (O00308 with tags, fused parts or gaps) above
In words: Fluorescence polarization WWP2 protein dose-response, binding of PY-motif peptide probes. The procedure:
[…] Non-binding solid black plates (Corning Costar 3575) were used. The assay buffer contained 20 mM Tris and 150 mM NaCl at pH 7.9. FP was measured on either a Biotek Synergy4 or an Analyst GT plate reader. Data analysis was performed using the in-house software excelHTS. […] Each assay plate included 16 negative control wells containing protein-probe mix but no compounds and 16 wells containing only probe.

The target of series [3] is T1, WWP2 (SEQ ID NO:24). The series is described as follows: Epic label-free binding assay of compounds to immobilized WWP2. As to the method:
Another preferred embodiment of an in vitro screening method is depicted in FIG. 3. In this method, the ability of the candidate compound 204 to directly interact with the cellular ESCRT-linked component protein (for example, Nedd4 family of polypeptides [for example, WWP1 (SEQ ID NO:29), WWP2 (SEQ ID NO:24), Nedd4 L, among others]) or TGS101 is evaluated. According to this embodiment, a cellular ESCRT component protein 202 is preferably immobilized to a substrate 201 (for example, a microtiter plate) via a linking group 203 (for example, an amine group). The substrate preferably includes an optional reference area that provides a control to prevent non-specific interactions with non-mobilized ESCRT complex protein 202 with substrate 201. The substrate 201 is washed and irradiated with broadband light so that a baseline refractive index is measured. Test compound 204 is added to the system to permit its binding to the immobilized ESCRT component protein 202 to form a resultant associative complex 205. The substrate 201 is irradiated with broadband light again to detect a change in the wavelength of the reflected light.
High sensitivity biochemical plates (PerkinElmer Cat. No. 6057468) are used in WWP2 (SEQ ID NO:24) binding assay to maximize protein immobilization. […] Because compound stocks are in DMSO that affects the Epic label-free readout, the compound plates were prepared by Echo550 acoustic dispenser to keep DMSO content balanced for all wells. […]
The binding of compounds to WWP2 (SEQ ID NO:24) was measured on the EnSpire label-free plate reader. After 25 minutes of thermal equilibration, a baseline reading was taken on the label-free plates with protein immobilized in assay buffer. […] The final reading was taken after 25 min of thermal equilibration and over a period of 60 minutes. The label-free responses were measured as shifts in reflected wavelength and were expressed in picometers (pm). Results were analyzed using the EnSpire label-free user interface software. […]

`O=C1c2ccccc2C(=O)c2c(NC3CCCCC3)ccc(Nc3ccc(S(=O)(=O)O)cc3)c21` [NSC128437]: the IC50 on WWP2 (SEQ ID NO:24) [1] was 3 µM.

In the case of `COc1ccc2[n-]c([S@@+]([O-])Cc3ncc(C)c(OC)c3C)nc2c1.[K+]` [Esomeprazole potassium, 5-methoxy-2-[(R)-[(4-methoxy-3,5-dimethylpyridin-2-yl)methane]sulfinyl]-1H-1,3-benzodiazole, potassium], the “HSV-1 virion release from cells (in words)” value in the series on HSV-1 (strain F) is “inhibit HSV-1 virion release from cells”.

Turning to `COc1ccc2[nH]c([S+]([O-])Cc3ncc(C)c(OC)c3C)nc2n1` (racemic) [Tenatoprazole, (RS)-3-Methoxy-8-[(4-methoxy-3,5-dimethyl-pyridin-2-yl)methylsulfinyl]-2,7,9-triazabicyclo[4.3.0]nona-2,4,8,10-tetraene], the “Cytotoxic effects on Vero cells” value in the series with Vero cells is given as “Neither inhibitor compound was cytotoxic; also recorded: not toxic; also recorded: did not display cytotoxic effects”. For the same compound, the “Thermal shift in protein unfolding (Tm) of TSG101” value on TSG101 (SEQ ID NO:33) was “lower Tm”. Moreover, the “HSV-1 virion release from cells (in words)” value with HSV-1 (strain F) is “inhibit HSV-1 virion release from cells”.

`Cc1nn(-c2ccc(S(=O)(=O)[O-])cc2)c([O-])c1N=Nc1ccc(-c2ccc(N=Nc3ccc4c(S(=O)(=O)[O-])cc(S(=O)(=O)[O-])c(N)c4c3[O-])c([O-])c2)cc1[O-].[Cu+2].[Cu+2].[H+].[H+].[H+]` [NSC306711]: the IC50 on WWP2 (SEQ ID NO:24) [1] was found to be 1 µM.

The Kd is the concentration at which binding is half-saturated. Consider “ATASAPPPYVGSGGGATASAPPPYVGSGGGATASAPPPYVGSGGGRRR [SEQ ID NO:17]”, for which, in series [2], the Kd was 0.2 µM.

At WWP2 (SEQ ID NO:24) [3], `CC1=C(O)C(=O)C=C2C1=CC=C1[C@@]2(C)CC[C@@]2(C)[C@@H]3C[C@](C)(C(=O)O)CC[C@]3(C)CC[C@]12C` [Celastrol, 3-Hydroxy-9β,13α-dimethyl-2-oxo-24,25,26-trinoroleana-1(10),3,5,7-tetraen-29-oic acid] came in with a dissociation constant Kd of 18.5 µM.

As to `CCC(/C=C1\Sc2cc(Br)ccc2N1CC)=C\c1sc2cc(Br)ccc2[n+]1CC` [CD23-G07], at WWP2 (SEQ ID NO:24) [1], the IC50 lay within 20 to 30 µM.
